Data reported in PubChem BioAssay AID248 (DTP/NCI, 2004).
Inconclusive results and toxic doses are left out. Rule as the data show it: active = T/C of 150% or more; inactive = T/C below 125%.

Test system: L1210 leukemia ip in BDF1 mice, survival T/C
Assay: NCI In Vivo Anticancer Drug Screen. Data for tumor model L1210 Leukemia (intraperitoneal) in B6D2F1 (BDF1) mice
Settings: endpoint: mean survival time, higher = longer survival
How it was run: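 In this screen, tumor-bearing mice given compound are compared to those given vehicle, and their survival values are reported as a treated-to-control quotient.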

[1] = dose: 100.0 mg/kg/injection, schedule: Q01DX001 (ip), vehicle: saline
[2] = dose: 200.0 mg/kg/injection, schedule: Q01DX001 (ip), vehicle: saline
[3] = dose: 100.0 mg/kg/injection, schedule: Q04DX003 (ip), vehicle: saline
[4] = dose: 200.0 mg/kg/injection, schedule: Q04DX003 (ip), vehicle: saline
[5] = dose: 400.0 mg/kg/injection, schedule: Q04DX003 (ip), vehicle: saline
[6] = dose: 75.0 mg/kg/injection, schedule: Q01DX001 (ip), vehicle: other
[7] = dose: 150.0 mg/kg/injection, schedule: Q01DX001 (ip), vehicle: other
[8] = dose: 300.0 mg/kg/injection, schedule: Q01DX001 (ip), vehicle: other
[9] = dose: 25.0 mg/kg/injection, schedule: Q01DX009 (ip), vehicle: saline with Tween-80
[10] = dose: 50.0 mg/kg/injection, schedule: Q01DX009 (ip), vehicle: saline with Tween-80
[11] = dose: 100.0 mg/kg/injection, schedule: Q04DX003 (ip), vehicle: Klucel (hydroxypropylcellulose) (HPC)
[12] = dose: 400.0 mg/kg/injection, schedule: Q01DX001 (ip), vehicle: saline
[13] = dose: 100.0 mg/kg/injection, schedule: Q01DX009 (ip), vehicle: saline with Tween-80
[14] = dose: 200.0 mg/kg/injection, schedule: Q04DX003 (ip), vehicle: Klucel (hydroxypropylcellulose) (HPC)
[15] = dose: 400.0 mg/kg/injection, schedule: Q04DX003 (ip), vehicle: Klucel (hydroxypropylcellulose) (HPC)
[16] = dose: 100.0 mg/kg/injection, schedule: Q01DX009 (ip), vehicle: saline
[17] = dose: 200.0 mg/kg/injection, schedule: Q01DX009 (ip), vehicle: saline
[18] = dose: 400.0 mg/kg/injection, schedule: Q01DX009 (ip), vehicle: saline

Measured: T/C

Ic1ccc(-n2cccc2)cc1
inactive: dose: 100.0 mg/kg/injection, schedule: Q01DX001 (ip), vehicle: steriod suspending solution 95 % of control | dose: 200.0 mg/kg/injection, schedule: Q01DX001 (ip), vehicle: steriod suspending solution 101 % of control | dose: 400.0 mg/kg/injection, schedule: Q01DX001 (ip), vehicle: steriod suspending solution 92 % of control

Nc1nc(N)c(-c2ccc(Cl)c(Cl)c2)c(CCc2ccc(NS(=O)(=O)c3cccc(S(=O)(=O)F)c3)cc2)n1
inactive: dose: 100.0 mg/kg/injection, schedule: Q01DX001 (ip), vehicle: saline with Tween-80 98 % of control | dose: 200.0 mg/kg/injection, schedule: Q01DX001 (ip), vehicle: saline with Tween-80 95 % of control | dose: 400.0 mg/kg/injection, schedule: Q01DX001 (ip), vehicle: saline with Tween-80 87 % of control

Nc1ncc([N+](=O)[O-])s1
inactive: dose: 25.0 mg/kg/injection, schedule: Q04DX002 (ip), vehicle: Klucel (hydroxypropylcellulose) (HPC) 95 % of control | dose: 50.0 mg/kg/injection, schedule: Q01DX001 (ip), vehicle: saline 98 % of control | dose: 50.0 mg/kg/injection, schedule: Q04DX002 (ip), vehicle: Klucel (hydroxypropylcellulose) (HPC) 98 % of control | [1] 98 % of control | dose: 100.0 mg/kg/injection, schedule: Q04DX002 (ip), vehicle: Klucel (hydroxypropylcellulose) (HPC) 115 % of control | [2] 98 % of control

CC(=O)Nc1c(Br)cc2c(c1Br)C(=O)c1cc(Br)ccc1-2
inactive: dose: 100.0 mg/kg/injection, schedule: Q01DX001 (ip), vehicle: carboxymethylcellulose (CMC) 100 % of control | dose: 200.0 mg/kg/injection, schedule: Q01DX001 (ip), vehicle: carboxymethylcellulose (CMC) 100 % of control | dose: 400.0 mg/kg/injection, schedule: Q01DX001 (ip), vehicle: carboxymethylcellulose (CMC) 100 % of control

O=C(O)CNc1nc(Cl)nc(NCC(=O)O)n1
inactive: dose: 50.0 mg/kg/injection, schedule: Q01DX009 (ip), vehicle: Klucel (hydroxypropylcellulose) (HPC) 106 % of control | dose: 100.0 mg/kg/injection, schedule: Q01DX009 (ip), vehicle: Klucel (hydroxypropylcellulose) (HPC) 89 % of control

CC(C)CC(C)OC(=O)CCl (stereo unspecified)
inactive: [3] 107 % of control | [4] 105 % of control | [5] 88 % of control

O=C(CCN1CCCCC1)C(O)(c1ccccc1)c1ccccc1
inactive: [6] 103 % of control | [7] 97 % of control | [8] 104 % of control

COC(=O)C(C(=O)OC)C(Br)C(Br)C(Br)c1ccccc1 (stereo unspecified)
inactive: [6] 91 % of control | [7] 94 % of control | [8] 96 % of control

O=C(CBr)CC(=O)Nc1ccccc1
inactive: [9] 97 % of control | [10] 91 % of control

O=C1CC2C3Nc4ccccc4C3CCN2C2=C1CC(OC(=O)c1ccccc1)CC2 (stereo unspecified)
inactive: dose: 12.5 mg/kg/injection, schedule: Q01DX009 (ip), vehicle: saline sonified 96 % of control | dose: 25.0 mg/kg/injection, schedule: Q01DX009 (ip), vehicle: saline sonified 98 % of control | dose: 50.0 mg/kg/injection, schedule: Q01DX009 (ip), vehicle: saline sonified 103 % of control | [11] 95 % of control

CCC(CC)(CC)c1ccc2ccccc2c1
inactive: [1] 98 % of control | [2] 96 % of control | [12] 106 % of control

COc1cc2c(cc1Cl)nc1c(=O)[nH]c(=O)nc-1n2CCN1CCCC1
inactive: dose: 8.7 mg/kg/injection, schedule: Q01DX Z (ip), vehicle: methylcellulose (MC) 97 % of control | dose: 17.5 mg/kg/injection, schedule: Q01DX Z (ip), vehicle: methylcellulose (MC) 94 % of control | dose: 70.0 mg/kg/injection, schedule: Q01DX Z (ip), vehicle: methylcellulose (MC) 114 % of control

O=C(CCl)Oc1cccc([N+](=O)[O-])c1
inactive: [9] 92 % of control | [10] 112 % of control | [13] 107 % of control | dose: 100.0 mg/kg/injection, schedule: Q04DX003 (ip), vehicle: saline with Tween-80 91 % of control | dose: 200.0 mg/kg/injection, schedule: Q04DX003 (ip), vehicle: saline with Tween-80 96 % of control | dose: 400.0 mg/kg/injection, schedule: Q04DX003 (ip), vehicle: saline with Tween-80 94 % of control

CCOP(=O)(OCC)OCCOCCOP(=O)(OCC)OCC
inactive: dose: 8.8 mg/kg/injection, schedule: Q01DX Z (ip), vehicle: saline 98 % of control | dose: 13.3 mg/kg/injection, schedule: Q01DX Z (ip), vehicle: saline 110 % of control | dose: 20.0 mg/kg/injection, schedule: Q01DX Z (ip), vehicle: saline 96 % of control

CC(=O)Nc1nnc(/C=C/c2ccc([N+](=O)[O-])o2)s1
inactive: [11] 87 % of control | [14] 89 % of control | [15] 100 % of control

Cc1nnc(NN)nc1C
inactive: dose: 6.25 mg/kg/injection, schedule: Q01DX009 (ip), vehicle: saline with Tween-80 101 % of control | dose: 6.25 mg/kg/injection, schedule: Q04DX003 (ip), vehicle: saline with Tween-80 100 % of control | dose: 12.5 mg/kg/injection, schedule: Q01DX001 (ip), vehicle: saline with Tween-80 112 % of control | dose: 12.5 mg/kg/injection, schedule: Q01DX009 (ip), vehicle: saline with Tween-80 103 % of control | dose: 12.5 mg/kg/injection, schedule: Q04DX003 (ip), vehicle: saline with Tween-80 103 % of control | dose: 25.0 mg/kg/injection, schedule: Q01DX001 (ip), vehicle: saline with Tween-80 100 % of control | dose: 25.0 mg/kg/injection, schedule: Q04DX003 (ip), vehicle: saline with Tween-80 95 % of control

Cc1ccc(S(=O)(=O)N/N=C/c2ccc(Cl)s2)cc1
inactive: [13] 95 % of control | dose: 200.0 mg/kg/injection, schedule: Q01DX009 (ip), vehicle: saline with Tween-80 97 % of control | dose: 400.0 mg/kg/injection, schedule: Q01DX009 (ip), vehicle: saline with Tween-80 92 % of control

O=S(=O)(O)C(O)C(Cl)(Cl)Cl (stereo unspecified)
inactive: [1] 103 % of control | [16] 98 % of control | [3] 107 % of control | [2] 101 % of control | [17] 101 % of control | [4] 96 % of control | [12] 98 % of control | [18] 98 % of control | [5] 95 % of control

O=P(O)(c1ccccc1)c1ccc(I)cc1
inactive: [1] 100 % of control | [3] 100 % of control | [2] 96 % of control | [4] 96 % of control | [12] 98 % of control | [5] 94 % of control

O=C(NOC(=O)c1ccco1)c1ccccc1
inactive: [11] 97 % of control | [14] 113 % of control | [15] 104 % of control

O=C([O-])C[n+]1ccccc1
inactive: [16] 105 % of control | [3] 105 % of control | [17] 94 % of control | [4] 107 % of control | [18] 87 % of control | [5] 100 % of control

O=c1[nH]c(=O)n(C2OC(CO)C(O)C2O)cc1CCC(F)F (stereo unspecified)
inactive: dose: 100.0 mg/kg/injection, schedule: Q04DX002 (ip), vehicle: other 105 % of control | dose: 200.0 mg/kg/injection, schedule: Q04DX002 (ip), vehicle: other 102 % of control
